In patent US9133148B2, “Carbamate compounds and of making and using same” (Abide Therapeutics, Inc., priority 2012, dated 2015):

Tests used:
Assay type in all cases: biochemical
MAGL [1] = biological target: T1, MAGL (Mus musculus (Mouse), UniProt O35678); experiment: In vitro competitive activity-based protein profiling (FP-Rh), mouse MAGL; details: mouse brain membrane proteome, competitive ABPP
Protocol: (§1) In Vitro Competitive Activity-Based Protein Profiling.
(§2) Proteomes (mouse brain membrane fraction or cell lysates) ([…], 1.0 mg/mL total protein concentration) were preincubated with varying concentrations of inhibitors at 37° C. After 30 min, FP-Rh (1.0 μL, 50 μM in DMSO) was added and the mixture was incubated for another 30 min at 37° C. Reactions were quenched with SDS loading buffer (50 μL—4×) and run on SDS-PAGE.

FAAH [2] = biological target: T2, FAAH (Mus musculus (Mouse), UniProt O08914); experiment: In vitro competitive activity-based protein profiling (FP-Rh), mouse FAAH; details: mouse brain membrane proteome, competitive ABPP
Protocol: as §1, §2

ABHD6 [3] = biological target: T3, ABHD6 (Mus musculus (Mouse), UniProt Q8R2Y0); experiment: In vitro competitive activity-based protein profiling (FP-Rh), mouse ABHD6; details: mouse brain membrane proteome, competitive ABPP
Protocol: as §1, §2

Human MAGL = Human MAGL (Homo sapiens (Human), UniProt Q99685); experiment: Competitive ABPP with recombinant human MAGL expressed in HEK293T cells; details: hMAGL in HEK293T cell lysates
Protocol: as §2
Recombinant Expression of Human MAGL in HEK293T Cells.
Cell lysates were diluted with mock proteomes for use in competitive ABPP experiments.

MAGL [4] = biological target: T1, MAGL; experiment: Competitive ABPP, % inhibition at 1 uM, MAGL
Protocol: as §1, §2

FAAH [5] = biological target: T2, FAAH; experiment: Competitive ABPP, % inhibition at 1 uM, FAAH
Outline: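 Mouse brain membrane proteome or cell lysate (1.0 mg/mL protein) preincubated 30 min at 37° C with inhibitor, then labelled 30 min at 37° C with FP-Rh probe. Resolved by SDS-PAGE; activity from in-gel fluorescence intensity of FAAH band.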

ABHD6 [6] = biological target: T3, ABHD6; experiment: Competitive ABPP, % inhibition at 1 uM, ABHD6
Protocol: as §1, §2

T3 sequence (Q8R2Y0 whole entry): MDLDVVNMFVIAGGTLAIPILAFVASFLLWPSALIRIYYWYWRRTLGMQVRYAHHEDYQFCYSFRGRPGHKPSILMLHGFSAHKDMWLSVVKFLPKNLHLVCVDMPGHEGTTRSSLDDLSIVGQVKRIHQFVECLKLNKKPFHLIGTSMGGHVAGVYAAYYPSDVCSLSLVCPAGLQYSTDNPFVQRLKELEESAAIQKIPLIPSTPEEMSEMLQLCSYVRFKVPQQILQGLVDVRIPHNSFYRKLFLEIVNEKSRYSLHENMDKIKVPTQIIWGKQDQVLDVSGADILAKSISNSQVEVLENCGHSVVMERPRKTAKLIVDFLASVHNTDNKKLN
T2 sequence (O08914 whole entry): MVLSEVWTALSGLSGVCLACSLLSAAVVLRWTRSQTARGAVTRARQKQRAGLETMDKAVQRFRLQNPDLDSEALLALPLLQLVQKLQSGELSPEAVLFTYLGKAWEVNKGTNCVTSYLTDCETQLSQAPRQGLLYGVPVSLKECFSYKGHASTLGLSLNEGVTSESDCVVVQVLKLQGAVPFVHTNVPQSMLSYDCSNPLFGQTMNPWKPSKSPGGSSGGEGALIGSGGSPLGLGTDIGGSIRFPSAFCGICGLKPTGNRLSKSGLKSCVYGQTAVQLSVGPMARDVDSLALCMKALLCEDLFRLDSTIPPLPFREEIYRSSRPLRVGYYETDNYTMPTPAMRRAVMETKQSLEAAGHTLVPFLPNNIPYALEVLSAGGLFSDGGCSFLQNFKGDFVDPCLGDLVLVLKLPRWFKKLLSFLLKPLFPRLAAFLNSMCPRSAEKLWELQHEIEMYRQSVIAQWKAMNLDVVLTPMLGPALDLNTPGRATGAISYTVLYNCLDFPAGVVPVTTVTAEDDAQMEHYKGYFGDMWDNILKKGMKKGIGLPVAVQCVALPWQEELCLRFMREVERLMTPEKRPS
T1 sequence (O35678 whole entry): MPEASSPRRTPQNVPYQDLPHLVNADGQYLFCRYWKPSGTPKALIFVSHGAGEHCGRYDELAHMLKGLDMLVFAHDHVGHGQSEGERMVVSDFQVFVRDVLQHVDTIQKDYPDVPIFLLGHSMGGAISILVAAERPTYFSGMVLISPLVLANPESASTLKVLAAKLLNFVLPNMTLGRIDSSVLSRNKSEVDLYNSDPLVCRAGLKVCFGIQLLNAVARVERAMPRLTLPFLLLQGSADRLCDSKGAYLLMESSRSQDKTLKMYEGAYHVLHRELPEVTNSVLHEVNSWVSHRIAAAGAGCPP
Chain of Human MAGL (Q99685 whole entry): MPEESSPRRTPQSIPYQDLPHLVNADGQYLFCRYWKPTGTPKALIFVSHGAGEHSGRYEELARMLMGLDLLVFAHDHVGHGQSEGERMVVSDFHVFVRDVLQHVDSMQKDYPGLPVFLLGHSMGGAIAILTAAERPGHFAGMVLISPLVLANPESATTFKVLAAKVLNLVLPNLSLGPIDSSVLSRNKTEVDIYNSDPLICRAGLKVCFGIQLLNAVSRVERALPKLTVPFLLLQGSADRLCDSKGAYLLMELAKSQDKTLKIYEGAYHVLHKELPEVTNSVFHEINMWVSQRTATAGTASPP

IC50 (MAGL [1])	IC50 (FAAH [2])	IC50 (ABHD6 [3])	IC50 (Human MAGL)	inhibition at 1 µM (MAGL [4])	inhibition at 1 µM (FAAH [5])	inhibition at 1 µM (ABHD6 [6])	Compound
< 100 nM	> 10000 nM	100 to 1000 nM	< 100 nM				O=C(OC(C(F)(F)F)C(F)(F)F)N1CCC(=C(c2ccc3c(c2)OCO3)c2ccc3c(c2)OCO3)CC1 [Example 1d, 1,1,1,3,3,3-hexafluoropropan-2-yl 4-(bis(benzo[d][1,3]dioxol-5-yl)methylene)piperidine-1-carboxylate]
< 100 nM	> 10000 nM	100 to 1000 nM	< 100 nM				O=C(OC(C(F)(F)F)C(F)(F)F)N1CCN(C(c2ccc3c(c2)CCO3)c2ccc3c(c2)CCO3)CC1 [Example 2e, 1,1,1,3,3,3-hexafluoropropan-2-yl 4-(bis(2,3-dihydrobenzofuran-5-yl)methyl)piperazine-1-carboxylate]
< 100 nM	> 10000 nM	> 1000 nM	< 100 nM				O=C(OC(C(F)(F)F)C(F)(F)F)N1CCN(C(c2ccc3c(c2)OC(F)(F)O3)c2ccc3c(c2)OC(F)(F)O3)CC1 [Example 2f, 1,1,1,3,3,3-hexafluoropropan-2-yl 4-(bis(2,2-difluorobenzo[d][1,3]-dioxol-5-yl)methyl)piperazine-1-carboxylate]
100 to 1000 nM	> 10000 nM	> 1000 nM	< 100 nM				O=C(OC(C(F)(F)F)C(F)(F)F)N1CCN(Cc2ccc(-c3ccccc3)cc2)CC1 [Example 3b, 1,1,1,3,3,3-hexafluoropropan-2-yl 4-([1,1′-biphenyl]-4-ylmethyl)-piperazine-1-carboxylate]
> 1000 nM	> 10000 nM	> 1000 nM	> 1000 nM				O=C(OC(C(F)(F)F)C(F)(F)F)N1CCN(C(=O)c2ccc(-c3ccccc3)cc2)CC1 [Example 3c, 1,1,1,3,3,3-hexafluoropropan-2-yl 4-([1,1′-biphenyl]-4-carbonyl)-piperazine-1-carboxylate]
> 1000 nM	> 10000 nM	> 1000 nM	< 100 nM				Cc1cc(N2CCN(C(=O)OC(C(F)(F)F)C(F)(F)F)CC2)c2ccccc2n1 [Example 3h, 1,1,1,3,3,3-hexafluoropropan-2-yl 4-(2-methylquinolin-4-yl)piperazine-1-carboxylate]
100 to 1000 nM	> 10000 nM	> 1000 nM	100 to 1000 nM				CN(Cc1ccc2c(c1)OCO2)C(=O)OC(C(F)(F)F)C(F)(F)F [Example 3i, 1,1,1,3,3,3-hexafluoropropan-2-yl(benzo[d][1,3]dioxol-5-ylmethyl)-(methyl)carbamate]
100 to 1000 nM	> 10000 nM	100 to 1000 nM	< 100 nM				Cc1nc(-c2cccc(CN(C)C(=O)OC(C(F)(F)F)C(F)(F)F)c2)no1 [Example 3j, 1,1,1,3,3,3-hexafluoropropan-2-yl methyl(3-(5-methyl-1,2,4-oxadiazol-3-yl)benzyl)carbamate]
100 to 1000 nM	> 10000 nM	100 to 1000 nM	100 to 1000 nM				O=C(OC(C(F)(F)F)C(F)(F)F)N1CCN(S(=O)(=O)c2ccccc2)CC1 [Example 4a, 1,1,1,3,3,3-hexafluoropropan-2-yl 4-(phenylsulfonyl)piperazine-1-carboxylate]
< 100 nM	> 10000 nM	100 to 1000 nM	< 100 nM				Cc1ccc(S(=O)(=O)N2CCN(C(=O)OC(C(F)(F)F)C(F)(F)F)CC2)cc1 [Example 4b, 1,1,1,3,3,3-hexafluoropropan-2-yl 4-tosylpiperazine-1-carboxylate]
100 to 1000 nM	> 10000 nM	> 1000 nM	100 to 1000 nM				N#Cc1ccc(S(=O)(=O)N2CCN(C(=O)OC(C(F)(F)F)C(F)(F)F)CC2)cc1 [Example 4d, 1,1,1,3,3,3-hexafluoropropan-2-yl 4-((4-cyanophenyl)sulfonyl)-piperazine-1-carboxylate]
> 1000 nM	> 10000 nM	> 1000 nM	> 1000 nM				CC(=O)Nc1ccc(S(=O)(=O)N2CCN(C(=O)OC(C(F)(F)F)C(F)(F)F)CC2)cc1 [Example 4e, 1,1,1,3,3,3-hexafluoropropan-2-yl 4-((4-acetamidophenyl)sulfonyl)-piperazine-1-carboxylate]
> 1000 nM	> 10000 nM	> 1000 nM	> 1000 nM				CC(C)c1cc(C(C)C)c(S(=O)(=O)N2CCN(C(=O)OC(C(F)(F)F)C(F)(F)F)CC2)c(C(C)C)c1 [Example 4f, 1,1,1,3,3,3-hexafluoropropan-2-yl 4-((2,4,6-triisopropylphenyl)-sulfonyl)piperazine-1-carboxylate]
100 to 1000 nM	> 10000 nM	100 to 1000 nM	100 to 1000 nM				Cc1ccccc1S(=O)(=O)N1CCN(C(=O)OC(C(F)(F)F)C(F)(F)F)CC1 [Example 4g, 1,1,1,3,3,3-hexafluoropropan-2-yl 4-(o-tolylsulfonyl)piperazine-1-carboxylate]
< 100 nM	> 10000 nM	> 1000 nM	> 1000 nM				O=C(OC(C(F)(F)F)C(F)(F)F)N1CCN(S(=O)(=O)c2ccc3ccccc3c2)CC1 [Example 4h, 1,1,1,3,3,3-hexafluoropropan-2-yl 4-(naphthalen-2-ylsulfonyl)-piperazine-1-carboxylate]
100 to 1000 nM	> 10000 nM	> 1000 nM	100 to 1000 nM				O=C(OC(C(F)(F)F)C(F)(F)F)N1CCN(S(=O)(=O)c2cccc(C(F)(F)F)c2)CC1 [Example 4i, 1,1,1,3,3,3-hexafluoropropan-2-yl 4-((3-(trifluoromethyl)phenyl)-sulfonyl)piperazine-1-carboxylate]
				> 75%	< 25%	> 75%	Cc1nc(CN2CCN(C(=O)OC(C(F)(F)F)C(F)(F)F)CC2)ccc1-c1ccccc1F [Example 11v, 1,1,1,3,3,3-hexafluoropropan-2-yl 4-[[5-(2-fluorophenyl)-6-methyl-pyridin-2-yl]methyl]piperazine-1-carboxylate]
				> 75%	< 25%	25 to 75%	Cc1nc(CN2CCN(C(=O)OC(C(F)(F)F)C(F)(F)F)CC2)ccc1-c1cccc(F)c1 [Example 11w, 1,1,1,3,3,3-hexafluoropropan-2-yl 4-[[5-(3-fluorophenyl)-6-methylpyridin-2-yl]methyl]piperazine-1-carboxylate]
				25 to 75%	< 25%	25 to 75%	Cc1cccc(-c2ccc(CN3CCN(C(=O)OC(C(F)(F)F)C(F)(F)F)CC3)c(C)c2)n1 [Example 11z, 1,1,1,3,3,3-hexafluoropropan-2-yl 4-[[2-methyl-4-(6-methylpyridin-2-yl)phenyl]methyl]piperazine-1-carboxylate]

Compound	IC50 (MAGL [1])	IC50 (FAAH [2])	IC50 (ABHD6 [3])	IC50 (Human MAGL)	inhibition at 1 µM (MAGL [4])	inhibition at 1 µM (FAAH [5])	inhibition at 1 µM (ABHD6 [6])
COc1ccc(N2CCN(C(=O)OC(C(F)(F)F)C(F)(F)F)CC2)cc1 [Example 3e, 1,1,1,3,3,3-hexafluoropropan-2-yl 4-(4-methoxyphenyl)piperazine-1-carboxylate]	> 1000 nM	> 10000 nM	100 to 1000 nM	100 to 1000 nM			
